Tested on: CAL51 cell proliferation
Assay: Cell Titer Glo Proliferation Assay (CAL51)
Format: cell-based, human
Conditions: Homo sapiens, CAL-51; CAL51 cell proliferation, 72 h, Cell Titer Glo luminescence; read-out: Act. Level
Experimental: Cell Titer Glo Proliferation Assay. Triple negative breast cancer cell line CAL51 was purchased from DSMZ. […] Allcell lines were maintained in growth media consisting of 90% high glucose Dulbecco's Modified Eagle Medium or RPMI1640 (Invitrogen), 10% fetal bovine serum (Hyclone), and 2 mM L-glutamine (Invitrogen). […] After overnight culture, compound stock (30 mM) was diluted serially in DMSO, further diluted in growth media, and was added to each well as a 10× concentrated solution in a volume of 11 μL, mixed, and allowed to incubate with cells. The compound vehicle (DMSO) was maintained at a final concentration of 0.2% in all wells. After 72 h, 100 μL of Cell Titer Glo solution (Promega) was added to each well of the 96-well plate. The plate was placed on a shaker for 2 minutes. After 10 minutes incubation, the luminescence signal was detected with Envision microplate reader (Perkin Elmer).

Compound: CNC(=O)c1ccc(Nc2nc(OC3CCCC3)c3c(-c4cncc(O)c4)c[nH]c3n2)c(OC)c1 [Example 51, 4-(4-(cyclopentyloxy)-5-(5-hydroxypyridin-3-yl)-7H-pyrrolo [2,3-d]pyrimidin-2-ylamino)-3-methoxy-N-methylbenzamide]
- IC50: < 100 nM

Compound: COc1cc(CN)ccc1Nc1nc(OC2CCCC2)c2c(-c3ccc(O)cc3)c[nH]c2n1 [Example 52, 4-(2-(4-(aminomethyl)-2-methoxyphenylamino)-4-(cyclopentyloxy)-7H-pyrrolo[2,3-d]pyrimidin-5-yl)phenol]
- IC50: 100 to 400 nM

Compound: COc1nc(Nc2ccc(C(=O)N(C)C)cc2Cl)nc2[nH]cc(-c3ccc(-c4nnc[nH]4)cc3)c12 [Example 53, 4-(5-(4-(4H-1,2,4-triazol-3-yl)phenyl)-4-methoxy-7H-pyrrolo [2,3-d]pyrimidin-2-ylamino)-3-chloro-N,N-dimethylbenzamide]
- IC50: 100 to 400 nM

Compound: CNC(=O)c1ccc(Nc2nc(OC3CCCC3)c3c(-c4ccc(OC)c(F)c4)c[nH]c3n2)c(OC)c1 [Example 54, 4-(4-(cyclopentyloxy)-5-(3-fluoro-4-methoxyphenyl)-7H-pyrrolo[2,3-d]pyrimidin-2-ylamino)-3-methoxy-N-methylbenzamide]
- IC50: 100 to 400 nM

Compound: CNC(=O)c1ccc(Nc2nc(OC3CCCC3)c3c(-c4cccc(NC(C)=O)c4)c[nH]c3n2)c(OC)c1 [Example 56, 4-(5-(3-acetamidophenyl)-4-(cyclopentyloxy)-7H-pyrrolo[2,3-d]pyrimidin-2-ylamino)-3-methoxy-N-methylbenzamide]
- IC50: < 100 nM

Compound: CNC(=O)c1ccc(Nc2nc(OC3CCCC3)c3c(-c4cccc(NS(C)(=O)=O)c4)c[nH]c3n2)c(OC)c1 [Example 57, 4-(4-(cyclopentyloxy)-5-(3-(methylsulfonamido)phenyl)-7H-pyrrolo[2,3-d]pyrimidin-2-ylamino)-3-methoxy-N-methylbenzamide]
- IC50: 100 to 400 nM

Compound: CNC(=O)c1ccc(Nc2nc(OC3CCCC3)c3c(-c4cccnc4)c[nH]c3n2)c(OC)c1 [Example 58, 4-(4-(cyclopentyloxy)-5-(pyridin-3-yl)-7H-pyrrolo[2,3-d]pyrimidin-2-ylamino)-3-methoxy-N-methylbenzamide]
- IC50: < 100 nM

Compound: CNC(=O)c1cccc(-c2c[nH]c3nc(Nc4ccc(C(=O)NC)cc4OC)nc(OC4CCCC4)c23)c1 [Example 59, 4-(4-(cyclopentyloxy)-5-(3-(methylcarbamoyl)phenyl)-7H-pyrrolo[2,3-d]pyrimidin-2-ylamino)-3-methoxy-N-methylbenzamide]
- IC50: 100 to 400 nM

Compound: CNC(=O)c1ccc(Nc2nc(OC3CCCC3)c3c(-c4cccc(OC)c4)c[nH]c3n2)c(OC)c1 [Example 60, 4-(4-(cyclopentyloxy)-5-(3-methoxyphenyl)-7H-pyrrolo[2,3-d]pyrimidin-2-ylamino)-3-methoxy-N-methylbenzamide]
- IC50: 100 to 400 nM

Compound: CNC(=O)c1ccc(Nc2nc(OC3CCCC3)c3c(-c4ccc(S(C)(=O)=O)cc4)c[nH]c3n2)c(OC)c1 [Example 61, 4-(4-(cyclopentyloxy)-5-(4-(methyl-sulfonyl)phenyl)-7H-pyrrolo[2,3-d]pyrimidin-2-ylamino)-3-methoxy-N-methylbenzamide]
- IC50: < 100 nM

Compound: CNC(=O)c1ccc(Nc2nc(OC3CCCC3)c3c(-c4ccc(NC(C)=O)cc4)c[nH]c3n2)c(OC)c1 [Example 62, 4-(5-(4-acetamidophenyl)-4-(cyclopentyloxy)-7H-pyrrolo[2,3-d]pyrimidin-2-ylamino)-3-methoxy-N-methylbenzamide]
- IC50: < 100 nM

Compound: CNC(=O)c1ccc(Nc2nc(OC3CCCC3)c3c(-c4cccc(S(C)(=O)=O)c4)c[nH]c3n2)c(OC)c1 [Example 63, 4-(4-(cyclopentyloxy)-5-(3-(methyl-sulfonyl)phenyl)-7H-pyrrolo[2,3-d]pyrimidin-2-ylamino)-3-methoxy-N-methylbenzamide]
- IC50: < 100 nM

Compound: CNC(=O)c1ccc(Nc2nc(OC3CCCC3)c3c(-c4ccc(OC)c(OC)c4)c[nH]c3n2)c(OC)c1 [Example 64, 4-(4-(cyclopentyloxy)-5-(3,4-dimethoxyphenyl)-7H-pyrrolo[2,3-d]pyrimidin-2-ylamino)-3-methoxy-N-methylbenzamide]
- IC50: 100 to 400 nM

Compound: CNC(=O)c1ccc(Nc2nc(OC3CCCC3)c3c(-c4cccc(N)c4)c[nH]c3n2)c(OC)c1 [Example 65, 4-(5-(3-aminophenyl)-4-(cyclopentyloxy)-7H-pyrrolo[2,3-d]pyrimidin-2-ylamino)-3-methoxy-N-methylbenzamide]
- IC50: < 100 nM

Compound: CNC(=O)c1ccc(Nc2nc(OC3CCCC3)c3c(-c4ccncc4)c[nH]c3n2)c(OC)c1 [Example 66, 4-(4-(cyclopentyloxy)-5-(pyridin-4-yl)-7H-pyrrolo[2,3-d]pyrimidin-2-ylamino)-3-methoxy-N-methylbenzamide]
- IC50: < 100 nM

Compound: COc1nc(Nc2ccc(C(=O)N3CCOCC3)cc2Cl)nc2[nH]cc(-c3ccc(-c4nnc[nH]4)cc3)c12 [Example 68, (4-(5-(4-(4H-1,2,4-triazol-3-yl)phenyl)-4-methoxy-7H-pyrrolo [2,3-d]pyrimidin-2-ylamino)-3-chlorophenyl)(morpholino) methanone]
- IC50: 100 to 400 nM

Compound: Cc1nc2ccc(-c3c[nH]c4nc(Nc5ccc(C(=O)N(C)C)cc5C)nc(NC5CCOCC5)c34)cc2o1 [Example 69, N,N,3-trimethyl-4-(5-(2-methylbenzo[d]oxazol-6-yl)-4-(tetrahydro-2H-pyran-4-ylamino)-7H-pyrrolo[2,3-d]pyrimidin-2-ylamino)benzamide]
- IC50: 100 to 400 nM

Compound: Cc1nc2ccc(-c3c[nH]c4nc(Nc5ccc(C(=O)N(C)C)cc5C)nc(OC5CCOCC5)c34)cc2o1 [Example 70, N,N,3-trimethyl-4-(5-(2-methylbenzo[d]oxazol-6-yl)-4-(tetrahydro-2H-pyran-4-yloxy)-7H-pyrrolo[2,3-d]pyrimidin-2-ylamino)benzamide]
- IC50: 100 to 400 nM

Compound: COc1nc(Nc2ccc(C(=O)N(C)C)cc2Cl)nc2[nH]cc(-c3ccc4[nH]c(N)nc4c3)c12 [Example 71, 4-(5-(2-amino-1H-benzo[d]imidazol-5-yl)-4-methoxy-7H-pyrrolo[2,3-d]pyrimidin-2-ylamino)-3-chloro-N,N-dimethylbenzamide]
- IC50: 100 to 400 nM

Compound: CNc1nc(Nc2ccc(C(=O)N(C)C)cc2Cl)nc2[nH]cc(-c3ccc(-c4nnc[nH]4)cc3)c12 [Example 72, 4-(5-(4-(4H-1,2,4-triazol-3-yl)phenyl)-4-(methylamino)-7H-pyrrolo[2,3-d]pyrimidin-2-ylamino)-3-chloro-N,N-dimethylbenzamide]
- IC50: 400 to 1000 nM

Compound: COc1nc(Nc2ccc(C(=O)N(C)C)cc2C)nc2[nH]cc(-c3ccc4nc(C)oc4c3)c12 [Example 73, 4-(4-methoxy-5-(2-methylbenzo[d]oxazol-6-yl)-7H-pyrrolo[2,3-d]pyrimidin-2-ylamino)-N,N,3-trimethylbenzamide]
- IC50: 1000 to 10000 nM

Compound: Cc1nc2ccc(-c3c[nH]c4nc(Nc5ccc(C(=O)N6CCNCC6)cc5C)nc(NC5CCOCC5)c34)cc2o1 [Example 74, (3-methyl-4-(5-(2-methylbenzo[d]oxazol-6-yl)-4-(tetrahydro-2H-pyran-4-ylamino)-7H-pyrrolo [2,3-d]pyrimidin-2-ylamino)phenyl) (piperazin-1-yl)methanone]
- IC50: 100 to 400 nM

Compound: CNC(=O)c1ccc(Nc2nc(OC3CCCC3)c3c(-c4ccc(N(C)C)cc4)c[nH]c3n2)c(OC)c1 [Example 75, 4-(4-(cyclopentyloxy)-5-(4-(di-methylamino)phenyl)-7H-pyrrolo [2,3-d]pyrimidin-2-ylamino)-3-methoxy-N-methylbenzamide]
- IC50: < 100 nM

Compound: CNC(=O)c1ccc(Nc2nc(OC3CCCC3)c3c(-c4ccc(OC)cc4)c[nH]c3n2)c(OC)c1 [Example 76, 4-(4-(cyclopentyloxy)-5-(4-methoxyphenyl)-7H-pyrrolo[2,3-d]pyrimidin-2-ylamino)-3-methoxy-N-methylbenzamide]
- IC50: < 100 nM

Compound: CNC(=O)c1ccc(Nc2nc(OC3CCCC3)c3c(-c4ccc(C#N)cc4)c[nH]c3n2)c(OC)c1 [Example 77, 4-(5-(4-cyanophenyl)-4-(cyclopentyloxy)-7H-pyrrolo[2,3-d]pyrimidin-2-ylamino)-3-methoxy-N-methylbenzamide]
- IC50: 1000 to 10000 nM

Compound: CNC(=O)c1ccc(Nc2nc(OC3CCCC3)c3c(-c4ccc5c(ccn5C)c4)c[nH]c3n2)c(OC)c1 [Example 78, 4-(4-(cyclopentyloxy)-5-(1-methyl-1H-indol-5-yl)-7H-pyrrolo[2,3-d]pyrimidin-2-ylamino)-3-methoxy-N-methylbenzamide]
- IC50: 1000 to 10000 nM

Compound: CNC(=O)c1ccc(Nc2nc(OC3CCCC3)c3c(-c4cc[nH]n4)c[nH]c3n2)c(OC)c1 [Example 80, 4-(4-(cyclopentyloxy)-5-(1H-pyrazol-3-yl)-7H-pyrrolo[2,3-d]pyrimidin-2-ylamino)-3-methoxy-N-methylbenzamide]
- IC50: < 100 nM

Compound: CNC(=O)c1ccc(Nc2nc(OC3CCCC3)c3c(-c4ccc5[nH]ccc5c4)c[nH]c3n2)c(OC)c1 [Example 81, 4-(4-(cyclopentyloxy)-5-(1H-indol-5-yl)-7H-pyrrolo[2,3-d]pyrimidin-2-ylamino)-3-methoxy-N-methylbenzamide]
- IC50: 400 to 1000 nM

Compound: CNC(=O)c1ccc(Nc2nc(OC3CCCC3)c3c(-c4cn[nH]c4)c[nH]c3n2)c(OC)c1 [Example 82, 4-(4-(cyclopentyloxy)-5-(1H-pyrazol-4-yl)-7H-pyrrolo[2,3-d]pyrimidin-2-ylamino)-3-methoxy-N-methylbenzamide]
- IC50: < 100 nM

Compound: COc1nc(Nc2ccc(C(=O)N(C)C)cc2Cl)nc2[nH]cc(-c3ccc4[nH]c(C)nc4c3)c12 [Example 83, 3-chloro-4-(4-methoxy-5-(2-methyl-1H-benzo[d]imidazol-5-yl)-7H-pyrrolo[2,3-d]pyrimidin-2-ylamino)-N,N-dimethylbenzamide]
- IC50: < 100 nM

Source: patent US9346812B2, “Substituted pyrrolopyrimidine compounds, compositions thereof, and methods of treatment therewith” (Signal Pharmaceutical LLC, priority 2013, dated 2016)
